Measured values from ChEMBL document CHEMBL1152142, “Validation of high-affinity binding sites for succinic acid through distinguishable binding of gamma-hydroxybutyric acid receptor-specific NCS 382 antipodes” (Bioorg Med Chem Lett, 2008).
Calls of active or inactive are those of the source. The calls are words filed in the database; no cut-off is given here.

Tests used:
[1] = target: T1, Gamma-hydroxybutyrate receptor (Rattus norvegicus) (UniProt Q6RY99); assay: Binding affinity to gamma-hydroxybutyrate binding site of gamma-hydroxybutyrate receptor in rat forebrain synaptic membranes at 100 uM; format: cell membranes; details: Membrane
T1 sequence (whole entry): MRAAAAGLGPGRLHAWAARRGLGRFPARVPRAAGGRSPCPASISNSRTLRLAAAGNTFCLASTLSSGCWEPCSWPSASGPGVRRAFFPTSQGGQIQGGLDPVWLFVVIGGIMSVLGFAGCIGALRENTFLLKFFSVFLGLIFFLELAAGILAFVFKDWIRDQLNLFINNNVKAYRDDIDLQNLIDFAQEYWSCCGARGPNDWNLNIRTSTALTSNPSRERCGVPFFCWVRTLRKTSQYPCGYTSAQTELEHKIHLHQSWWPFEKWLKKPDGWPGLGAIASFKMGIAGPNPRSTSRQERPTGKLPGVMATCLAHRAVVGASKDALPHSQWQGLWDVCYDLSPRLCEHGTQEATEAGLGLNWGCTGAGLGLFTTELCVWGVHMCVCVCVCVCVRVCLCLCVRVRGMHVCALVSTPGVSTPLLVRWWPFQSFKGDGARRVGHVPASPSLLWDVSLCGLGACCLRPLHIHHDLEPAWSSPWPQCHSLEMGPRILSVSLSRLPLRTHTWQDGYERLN

[2] = target: T1, Gamma-hydroxybutyrate receptor (Rattus norvegicus); assay: Binding affinity to succinic acid binding site of gamma-hydroxybutyrate receptor in rat forebrain synaptic membranes at 100 uM; format: cell membranes; details: Membrane
[3] = target: Calcium/calmodulin-dependent protein kinase type II subunit alpha (Rattus norvegicus, UniProt P11275); assay: Displacement of [3H]GHB from gamma-hydroxybutyrate binding site of gamma-hydroxybutyrate receptor in rat forebrain synaptic membranes; format: cell membranes, Membrane
Sequence of Calcium/calmodulin-dependent protein kinase type II subunit alpha (P11275 whole entry): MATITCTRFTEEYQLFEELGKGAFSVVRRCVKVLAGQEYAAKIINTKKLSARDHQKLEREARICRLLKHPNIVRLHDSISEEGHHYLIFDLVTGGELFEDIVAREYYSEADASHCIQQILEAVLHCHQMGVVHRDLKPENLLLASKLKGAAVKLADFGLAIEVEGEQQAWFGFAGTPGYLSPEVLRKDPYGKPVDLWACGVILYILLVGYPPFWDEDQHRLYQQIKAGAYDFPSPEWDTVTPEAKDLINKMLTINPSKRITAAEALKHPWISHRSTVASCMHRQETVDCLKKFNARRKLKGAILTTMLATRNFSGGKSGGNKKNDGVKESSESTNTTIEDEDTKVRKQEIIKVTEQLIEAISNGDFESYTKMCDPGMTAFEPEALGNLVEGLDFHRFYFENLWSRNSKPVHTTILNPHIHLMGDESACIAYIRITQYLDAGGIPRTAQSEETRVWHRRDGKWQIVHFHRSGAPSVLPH

[4] = target: T2, Gamma-hydroxybutyrate receptor (Rattus norvegicus, UniProt Q6RY99); assay: Displacement of [3H]SUC from succinic acid binding site of gamma-hydroxybutyrate receptor in rat forebrain synaptic membranes
T2 sequence (Q6RY99 whole entry): T1 sequence (whole entry)

Row | SMILES | Activity [1] | Activity [2] | IC50 [3] | IC50 [4]
1 | COC(=O)[C@@H]1C[C@H](O)CCN1 | inactive | inactive | – | –
2 | O=C(O)/C=C1\CCCc2ccccc2[C@@H]1O | – | – | 800 nM | 400 nM
3 | O=C(O)/C=C1\CCCc2ccccc2[C@H]1O | – | – | 93000 nM | 74000 nM
4 | O=C(O)/C=C1\CCCc2ccccc2C1O (racemic) | – | – | 900 nM | 500 nM

Continued, values first:

Row | Activity [1] | Activity [2] | IC50 [3] | IC50 [4] | SMILES
5 | inactive | inactive | – | – | O=C(O)[C@H]1C[C@H](O)CCN1
6 | 30% | 26% | – | – | O=C(O)[C@H]1C[C@@H](O)CCN1
7 | inactive | inactive | – | – | O=C(O)[C@@H]1C[C@H](O)CCN1
8 | inactive | inactive | – | – | COC(=O)[C@H]1C[C@H](O)CCN1
